Assay results taken from patent US20260234130A1, “EP2 Antagonist Compounds” (Reservoir Neuroscience, Inc., priority 2022, published 2026).

Molecular target: T1, EP2 receptor (Homo sapiens, UniProt P43116)
T1 construct: expressed in transfected cells; host or cells: CHO-K1 cells (ATCC), transient transfection with FuGENE 6
Test: EP2 potency assay (cAMP TR-FRET, LANCE Ultra cAMP kit) in transfected CHO-K1 cells stimulated with PGE2 at EC80
Format: cell-based
Details: EP2 antagonism, CHO-K1 cells expressing EP2, PGE2 at EC80
Method: Compound potency was measured using a cAMP TR-FRET assay. CHO-K1 cells (ATCC) were seeded at a density of 9.75×105 in 6 cm plates, and then on the following day cell media was changed to Opti-Mem I reduced serum media (Gibco), and transfected with a plasmid for expression of the EP2 receptor (the target receptor of interest), using the FuGENE 6 Transfection reagent (Promega). After 6 hours incubation, the cell media was replaced with F12 medium supplemented with 10% FBS and 100 U/ml Pen-Strep. 24 hours after transfection, cells were harvested and seeded at a density of 3000 cells/well in a 384 well plate to perform the cAMP assay, using the LANCE Ultra cAMP assay kit (PerkinElmer). For each test compound of interest, 10 nl/well of serially diluted test compound was added to each well, resulting in a range of 10 serially diluted compound concentrations from 10000 nM to 0.038 nM, with duplicate wells for each concentration. Plates were then centrifuged at 1000 rpm for 1 min, agitated at 600 rpm at R.T. for 2 min, and incubated at 25° C. for 5 min. The reference agonist, prostaglandin E2 (MCE), was added to each well at the appropriate concentration to reach its EC80 value. Plates were then centrifuged at 1000 rpm for 1 min, agitated at 600 rpm at R.T. for 2 min, and incubated at 25° C. for 30 min. To measure levels of cAMP, 5 μl/well of Eu-cAMP working solution and 5 μl/well of Ulight-anti-cAMP working solution were added to each well, and the plate was centrifuged at 1000 rpm for 1 min, agitated at 600 rpm at R.T. for 2 min, and incubated at 25° C. for 15 min. Levels of TR-FRET fluorescence were measured in each well using an EnVision microplate reader (excitation wavelength=337 nm and emission wavelength=615 and 665 nm). A dose-response curve was prepared by plotting percent inhibition for each compound concentration, and then IC50 was calculated by fitting a curve to the plotted values and extrapolating the IC50 concentration. […] Potency data is grouped into categories of AA (IC50<100 nM); A (IC50=100 to 500 nM); B (IC50=500 nM to […]); C (IC50=1 μM to 5 μM); and D (IC50>5 μM).

T1 sequence (P43116 whole entry): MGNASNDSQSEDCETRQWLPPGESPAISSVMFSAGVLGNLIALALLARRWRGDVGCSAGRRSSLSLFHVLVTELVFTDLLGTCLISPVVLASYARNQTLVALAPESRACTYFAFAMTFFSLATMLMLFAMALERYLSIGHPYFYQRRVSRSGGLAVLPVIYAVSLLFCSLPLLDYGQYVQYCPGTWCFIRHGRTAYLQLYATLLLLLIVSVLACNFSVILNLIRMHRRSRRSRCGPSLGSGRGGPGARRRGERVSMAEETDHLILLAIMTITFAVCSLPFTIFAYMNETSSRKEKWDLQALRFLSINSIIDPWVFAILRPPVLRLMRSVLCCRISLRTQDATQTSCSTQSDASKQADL

| IC50 (Table (IV)) | IC50 (Table (V)) | SMILES |
| --- | --- | --- |
| > 5000 nM |  | COc1ccc(C(N2CCC(COc3ccc(-c4ccc(C#N)cc4)cc3)(C(=O)O)C2)C(F)(F)F)cc1 (centres unmarked) [I-2, 3-(((4′-cyano-[1,1′-biphenyl]-4-yl)oxy)methyl)-1-(2,2,2-trifluoro-1-(4-methoxyphenyl)ethyl)pyrrolidine-3-carboxylic acid] |
| < 100 nM |  | COc1ccc(C(=O)N2CCC(COc3ccc(C45CC(C#N)(C4)C5)cc3)(C(=O)O)C2)cc1 (centres unmarked) [I-6, 3-((4-(3-cyanobicyclo[1.1.1]pentan-1-yl)phenoxy)methyl)-1-(4-methoxybenzoyl)pyrrolidine-3-carboxylic acid] |
| 100 to 500 nM |  | COc1ccc(C(=O)N2CCC(COc3ccc(C45CC(C4)C5)cc3)(C(=O)O)C2)cc1 (centres unmarked) [I-7, 3-((4-(bicyclo[1.1.1]pentan-1-yl)phenoxy)methyl)-1-(4-methoxybenzoyl)pyrrolidine-3-carboxylic acid] |
| 100 to 500 nM |  | COc1ccc(C(=O)N2CCC(COc3ccc(C45CC(C(N)=O)(C4)C5)cc3)(C(=O)O)C2)cc1 (centres unmarked) [I-8, 3-(4-{3-carbamoylbicyclo[1.1.1]pentan-1-yl}phenoxymethyl)-1-(4-methoxybenzoyl)pyrrolidine-3-carboxylic acid] |
| > 5000 nM |  | COc1ccc(C(=O)N2CCC(COc3ccc(-c4ccc(C#N)cc4)cc3)(S(C)(=N)=O)C2)cc1 (centres unmarked) [I-9, 4′-((1-(4-methoxybenzoyl)-3-(S-methylsulfonimidoyl)pyrrolidin-3-yl)methoxy)-[1,1′-biphenyl]-4-carbonitrile] |
| > 5000 nM |  | COc1ccc(C(=O)N2CCC(COc3ccc(-c4ccc(C#N)cc4)cc3)(S(=O)(=O)NS(C)(=O)=O)C2)cc1 (centres unmarked) [I-10, 3-(((4′-cyano-[1,1′-biphenyl]-4-yl)oxy)methyl)-1-(4-methoxybenzoyl)-N-(methylsulfonyl)pyrrolidine-3-sulfonamide] |
| > 5000 nM |  | COc1ccc(C(=O)N2CCC(COc3ccc(C45CC(C(=O)O)(C4)C5)cc3)(C(=O)O)C2)cc1 (centres unmarked) [I-11, 3-((4-(3-carboxybicyclo[1.1.1]pentan-1-yl)phenoxy)methyl)-1-(4-methoxybenzoyl)pyrrolidine-3-carboxylic acid] |
| > 5000 nM |  | COc1ccc(C(=O)N2CCC(COc3ccc(-c4ccc(C#N)cc4)cc3)(C(O)C(F)(F)F)C2)cc1 (centres unmarked) [I-12, 4′-((1-(4-methoxybenzoyl)-3-(2,2,2-trifluoro-1-hydroxyethyl)pyrrolidin-3-yl)methoxy)-[1,1′-biphenyl]-4-carbonitrile] |
| > 5000 nM |  | COc1ccc(C(=O)N2CCC(COc3ccc(-c4ccc(C#N)cc4)cc3)(C(O)(O)C(F)(F)F)C2)cc1 (centres unmarked) [I-13, 4′-((1-(4-methoxybenzoyl)-3-(2,2,2-trifluoro-1,1-dihydroxyethyl)pyrrolidin-3-yl)methoxy)-[1,1′-biphenyl]-4-carbonitrile] |
| > 5000 nM |  | COc1ccc(C(=O)N2CCC(COc3ccc(Br)cc3)(C(O)C(F)(F)F)C2)cc1 (centres unmarked) [I-14, (3-((4-bromophenoxy)methyl)-3-(2,2,2-trifluoro-1-hydroxyethyl)pyrrolidin-1-yl)(4-methoxyphenyl)methanone] |
|  | > 5000 nM | Fc1ccc2c(ccn2-c2cc(Cl)c3c(c2)CN(Cc2cnc(OCC(F)(F)F)nc2)CCO3)c1 [II-1, 9-chloro-7-(5-fluoro-1H-indol-1-yl)-4-((2-(2,2,2-trifluoroethoxy)pyrimidin-5-yl)methyl)-2,3,4,5-tetrahydrobenzo [f][1,4]oxazepine] |
|  | 1000 to 5000 nM | Cn1cc(-c2ncc(CN3CCOc4c(Cl)cc(-n5ccc6cc(F)ccc65)cc4C3)cn2)cn1 [II-2, 9-chloro-7-(5-fluoro-1H-indol-1-yl)-4-((2-(1-methyl-1H-pyrazol-4-yl)pyrimidin-5-yl)methyl)-2,3,4,5-tetrahydrobenzo[f][1,4] oxazepine] |
|  | > 5000 nM | COc1ncc(CN2CCOc3c(Cl)cc(N4CCN(C)c5cc(F)ccc54)cc3C2)cn1 [II-3, 9-chloro-7-(6-fluoro-4-methyl-3,4-dihydroquinoxalin-1(2H)-yl)-4-((2-methoxypyrimidin-5-yl)methyl)-2,3,4,5-tetrahydrobenzo[f][1,4] oxazepine] |
|  | 1000 to 5000 nM | O=c1ncc(CN2CCOc3c(Cl)cc(-n4ccc5cc(F)c(F)cc54)cc3C2)c[nH]1 [II-4, 5-((9-chloro-7-(5,6-difluoro-1H-indol-1-yl)-2,3-dihydrobenzo[f][1,4]oxazepin-4(5H)-yl)methyl)pyrimidin-2(1H)-one] |
|  | 100 to 500 nM | Cc1ncc(CN2CCOc3c(Cl)cc(-n4ccc5cc(F)ccc54)cc3C2)cn1 [II-5, 9-chloro-7-(5-fluoro-1H-indol-1-yl)-4-((2-methylpyrimidin-5-yl)methyl)-2,3,4,5-tetrahydrobenzo[f][1,4] oxazepine] |
|  | 500 to 1000 nM | N#Cc1ncc(CN2CCOc3c(Cl)cc(-n4ccc5cc(F)ccc54)cc3C2)cn1 [II-6, 5-((9-chloro-7-(5-fluoro-1H-indol-1-yl)-2,3-dihydrobenzo[f][1,4]oxazepin-4(5H)-yl)methyl)pyrimidine-2-carbonitrile] |
|  | 1000 to 5000 nM | Fc1ccc2c(ccn2-c2cc(Cl)c3c(c2)CN(Cc2cnc(-n4cccn4)nc2)CCO3)c1 [II-7, 4-((2-(1H-pyrazol-1-yl)pyrimidin-5-yl)methyl)-9-chloro-7-(5-fluoro-1H-indol-1-yl)-2,3,4,5-tetrahydrobenzo[f][1,4] oxazepine] |
|  | 1000 to 5000 nM | Fc1ccc2c(ccn2-c2cc(Cl)c3c(c2)CN(Cc2cnc(C(F)(F)F)nc2)CCO3)c1 [II-8, 9-chloro-7-(5-fluoro-1H-indol-1-yl)-4-((2-(trifluoromethyl)pyrimidin-5-yl)methyl)-2,3,4,5-tetrahydrobenzo[f][1,4] oxazepine] |
|  | 100 to 500 nM | Fc1ccc2c(ccn2-c2cc(Cl)c3c(c2)CN(Cc2cncnc2)CCO3)c1 [II-9, 9-chloro-7-(5-fluoro-1H-indol-1-yl)-4-(pyrimidin-5-ylmethyl)-2,3,4,5-tetrahydrobenzo[f][1,4] oxazepine] |
|  | > 5000 nM | COc1ncc(CN2CCOc3c(Cl)cc(-n4ccc5cc(C6CC6)ccc54)cc3C2)cn1 [II-10, 9-chloro-7-(5-cyclopropyl-1H-indol-1-yl)-4-((2-methoxypyrimidin-5-yl)methyl)-2,3,4,5-tetrahydrobenzo[f][1,4] oxazepine] |
|  | 100 to 500 nM | Nc1ncc(CN2CCOc3c(Cl)cc(-n4ccc5cc(F)ccc54)cc3C2)c(N)n1 [II-11, 5-((9-chloro-7-(5-fluoro-1H-indol-1-yl)-2,3-dihydrobenzo[f][1,4]oxazepin-4(5H)-yl)methyl)pyrimidin-2,4-diamine] |
|  | 1000 to 5000 nM | CS(=O)(=O)Nc1ncc(CN2CCOc3c(Cl)cc(-n4ccc5cc(F)ccc54)cc3C2)cn1 [II-13] |
|  | 1000 to 5000 nM | CC(=O)Nc1ncc(CN2CCOc3c(Cl)cc(-n4ccc5cc(F)ccc54)cc3C2)cn1 [II-14, N-(5-((9-chloro-7-(5-fluoro-1H-indol-1-yl)-2,3-dihydrobenzo[f][1,4]oxazepin-4(5H)-yl)methyl)pyrimidin-2-yl)acetamide] |
|  | < 100 nM | O=C(O)c1ccc(CN2CCOc3c(Cl)cc(-n4ccc5cc(F)ccc54)cc3C2)cn1 [II-15, 5-((9-chloro-7-(5-fluoro-1H-indol-1-yl)-2,3-dihydrobenzo[f][1,4]oxazepin-4(5H)-yl)methyl)picolinic acid] |
|  | > 5000 nM | Nc1ncc(CN2CCOc3c(Cl)cc(-n4ccc5cc(F)ccc54)cc3C2)c(=O)[nH]1 [II-16, 2-amino-5-((9-chloro-7-(5-fluoro-1H-indol-1-yl)-2,3-dihydrobenzo[f][1,4]oxazepin-4(5H)-yl)methyl)pyrimidin-4(3H)-one] |
|  | 100 to 500 nM | N#CCc1ncc(CN2CCOc3c(Cl)cc(-n4ccc5cc(F)ccc54)cc3C2)cn1 [II-17, 2-(5-((9-chloro-7-(5-fluoro-1H-indol-1-yl)-2,3-dihydrobenzo[f][1,4]oxazepin-4(5H)-yl)methyl)pyrimidin-2-yl)acetonitrile] |
|  | 100 to 500 nM | COC(=O)c1ccc(CN2CCOc3c(Cl)cc(-n4ccc5cc(F)ccc54)cc3C2)cn1 [II-19, methyl 5-((9-chloro-7-(5-fluoro-1H-indol-1-yl)-2,3-dihydrobenzo[f][1,4]oxazepin-4(5H)-yl)methyl)picolinate] |
|  | 500 to 1000 nM | COCCc1ncc(CN2CCOc3c(Cl)cc(-n4ccc5cc(F)ccc54)cc3C2)cn1 [II-20, 9-chloro-7-(5-fluoro-1H-indol-1-yl)-4-((2-(2-methoxyethyl)pyrimidin-5-yl)methyl)-2,3,4,5-tetrahydrobenzo[f][1,4]oxazepine] |
|  | 500 to 1000 nM | Fc1ccc2c(ccn2-c2cc(Cl)c3c(c2)CN(Cc2cnc(C4CC4)nc2)CCO3)c1 [II-21, 9-chloro-4-((2-cyclopropylpyrimidin-5-yl)methyl)-7-(5-fluoro-1H-indol-1-yl)-2,3,4,5-tetrahydrobenzo[f][1,4]oxazepine] |
